Reference: patent publication US20080233561A1, “Method for Measuring Cytopathic Effect Due to Viral Infection in Cells Using Electric Cell-Substrate Impedance Sensing” (UNIVERSITY OF LOUISVILLE RESEARCH FOUNDATION, INC., priority 2005, published 2008)

Tested on: PR8 influenza A virus (influenza/A/PR/8/34 virus)
Type: cell-based

`Cl.N` [NH4Cl, ammonium chloride] was tested, and the “CPE in influenza-infected cells, observed with ECIS” value was “Inhibition of CPE in influenza-infected cells”.
